According to US12595269B2, “Morpholine-like monoamine releasers” (Solvonis Therapeutics Ireland Holdings Limited, priority 2022, dated 2026):

Experiments:
DAT (dopamine release) = molecular target: T1, DAT (dopamine release) (Rattus norvegicus, UniProt P23977); assay: Dopamine release filtration assay in rat striatal synaptosomes; format: cell-based; conditions: % of release by 50 μM MDMA, read-out: DAT release pEC50 (converted)
T1 construct: added to the tube containing the crude striatal synaptosomes preparation; from tissue; host or cells: rat striatum, crude synaptosomes
Description: Methods and Procedure—Release: The potency of the disclosed compounds for stimulating dopamine (DA) release was measured by an endpoint release filtration assay in a 96-well format using rat synaptosomes, essentially as described by Sandtner et al., Mol. Pharmacol., 2016; 89(1):165-75, and Baumann et al., Neuropsychopharmacol., 2013; 38:552-562, with some variations.
One male rat was sacrificed and striatum/cortex regions were dissected over ice. The striatum portions were weighed and put in a glass tube for homogenization, containing ice-cold 0.32 M sucrose (dilution 1:24 w/v), while the frontal cortex tissue was diluted in ice-cold 0.32 M sucrose, 1:20 w/v. Tissues were homogenized and centrifuged for 10 mins at 1000×g. The two supernatants from striatum and cortex (crude synaptosomes) were retained on ice until use.
Test compounds were then serially diluted 1:4 in neat DMSO as concentration-response curves (CRC) of 11 points. […]
^3H-Dopamine was added to the tube containing the crude striatal synaptosomes preparation, diluted 1:20 (v/v) in complete Krebs-phosphate buffer, and was incubated at RT and gently mixed for 60 minutes. […] The retained radioactivity was counted in a scintillation counter after the addition of 50 μL/well Microscint-20.
The raw data (cpm) from residual radioactivity onto the filter were elaborated for the determination of pEC50/EC50 values. Specifically, the compound effect was expressed as the percent of maximal release obtained with 50 μM MDMA (100% release) in comparison to vehicle (0.5% DMSO, 0% release). […] In each plate, for both 0% and 100% of release, the signal window is monitored performing Z′ calculations using raw data of four replicates.

[1] = Brain tissue binding (BTB) by equilibrium dialysis, rat brain homogenate; format: in vitro ADME; conditions: male, Sprague Dawley, pH 7.4
Description: Methods and Procedure: This study was performed in agreement with the previously described procedures to assure data integrity and adherence to GLP standards. Plasma protein binding and blood tissue binding of test items (0.5 μM) was determined using biological samples from male Sprague Dawley (SD) rats and humans. […] Dexamethasone was used as a control for lung tissue binding. Various biological samples were spiked with test compounds according to the methods that follow.
Preparation of brain homogenate samples: Test items were dissolved in DMSO (or an appropriate solvent) to give a 10 mM solution. Further dilutions, to obtain […] working solutions (WS), were then prepared using 50% acetonitrile in Milli Q water. These 100×WS were used to spike the brain homogenate to obtain a final concentration of 5 μM. From this initial spiking solution, control samples (n=3) referred to as T=0, were immediately extracted by protein precipitation.
An equilibrium dialysis method was performed to determine protein binding in the various biological samples described herein. Materials were prepared and methods were in accordance with the following procedures.
Membranes were prepared for use in the equilibrium dialysis experiment, by soaking in deionized water for at least 60 minutes. After this period, 20% of pure ethanol was added, and the membranes were left in this solution for at least 20 minutes. The membranes were then rinsed in Milli-Q water prior to use. […]
Dialysis buffer was prepared by dissolving Na2HPO4 8.69 g, KH2PO4 1.90 g, and NaCl 4.11 g in 1 L of MilliQ water, and adjusting the pH to 7.4 with H3PO4. […] In order to control the integrity of the membrane after the dialysis process, the presence of protein was assessed in the buffer compartment. […]
Samples were analyzed in a LC-MS/MS system using an analytical method to monitor the compound to internal standard peak area ratios as representative of the compound concentrations. Alternatively, samples were analyzed by RapidFire. […]

T1 sequence (P23977 whole entry): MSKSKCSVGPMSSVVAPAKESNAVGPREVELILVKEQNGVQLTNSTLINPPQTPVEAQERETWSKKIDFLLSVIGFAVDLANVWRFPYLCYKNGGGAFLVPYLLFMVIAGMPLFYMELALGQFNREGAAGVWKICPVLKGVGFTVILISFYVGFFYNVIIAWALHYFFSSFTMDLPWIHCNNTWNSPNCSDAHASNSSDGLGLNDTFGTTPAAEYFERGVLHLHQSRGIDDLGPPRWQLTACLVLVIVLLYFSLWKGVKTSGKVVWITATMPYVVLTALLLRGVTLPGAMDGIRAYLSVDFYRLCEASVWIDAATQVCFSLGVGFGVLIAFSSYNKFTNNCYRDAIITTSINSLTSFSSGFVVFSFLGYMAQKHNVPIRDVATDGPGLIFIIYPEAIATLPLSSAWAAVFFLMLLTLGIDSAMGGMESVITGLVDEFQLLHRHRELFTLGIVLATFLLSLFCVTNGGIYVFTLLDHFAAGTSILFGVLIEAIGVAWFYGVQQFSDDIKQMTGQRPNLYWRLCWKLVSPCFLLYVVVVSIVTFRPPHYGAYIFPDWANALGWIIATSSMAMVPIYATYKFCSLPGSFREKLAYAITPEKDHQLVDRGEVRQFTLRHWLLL

Clc1ccc([C@]23CN[C@H](CO2)C3)cc1Cl (single isomer, unassigned) [516A]
EC50 (DAT (dopamine release)): 1100 nM

CNC(C)Cc1ccc2c(c1)OCO2 (stereo not drawn) [MDMA, reference compound]
fraction unbound at 5 h, 5 µM [1]: ~0.4

Clc1ccc(C23CNC(CO2)C3)cc1Cl (stereo not drawn) [522A, 1-(3,4-dichlorophenyl)-2-oxa-5-azabicyclo[2.2.1]heptane]
EC50 (DAT (dopamine release)): 61.7 nM | fraction unbound at 5 h, 5 µM [1]: 0.022

Clc1ccc([C@@]23CN[C@@H](CO2)C3)cc1Cl (single isomer, unassigned) [518A]
EC50 (DAT (dopamine release)): 33.1 nM | fraction unbound at 5 h, 5 µM [1]: 0.0127
